Laboratory results taken from patent US12221439B2, “Tetrahydropyridopyrimidine derivatives as AhR modulators” (JAGUAHR THERAPEUTICS PTE LTD, priority 2018, dated 2025).

Experiments:
[1] = biological target: AhR (Homo sapiens (Human), UniProt P35869); experiment: AhR antagonism in U937 cells (Promega P450-Glo assay); assay type: cell-based; details: inhibition of agonist (KYNA) response, CYP1A1 activity readout (Luciferin-CEE), 24 hrs, arithmetic mean of pIC50
Method: Examples were tested in selected biological assays two or more times. Data are reported as the arithmetic mean of the pIC50 (−log10IC50) values, where IC50 is defined as the concentration of compound producing a 50% inhibition of the agonist (KYNA) response.
In Vitro Assay 1: AhR Antagonism in U937 Cells (Promega P450-Glo™ Assay)
AhR antagonism was assessed in U937 cells (myeloid lineage cell line derived from a human histiocytic lymphoma).). Ligand binds the AhR in the cytoplasm, and the AhR-ligand complex translocates to the nucleus and forms a heterodimer with AhR nuclear translocator (Arnt). This complex binds the xenobiotic response element (XRE) in the 5′ upstream region of the CYP1A1 promoter, enhancing CYP1A1 expression. CYP1A1 activity is subsequently determined by assessing the conversion of Luciferin-CEE to luciferin, which in turn reacts with luciferase to produce light. The amount of light produced is directly proportional to cytochrome P450 activity. U937 cells in Ultraculture serum free media (Lonza) were plated at 100,000 cells per well in a round bottom 96 well tissue culture plate. Seven concentrations of test compound (final [DMSO] 1%) were added and incubated for 10 minutes before the addition of […] KYNA. The plates were then placed in an incubator at 37° C., >85% humidity, 5% CO2 for 24 hrs. After aspiration of the supernatant the CYP1A1 substrate Luciferin-CEE ([Final] 83 μM) was added and incubated for 3 hrs before the reaction was stopped by adding luciferin detection reagent and luminescence was read after 20 minutes.

[2] = biological target: CYP1A1 (Homo sapiens (Human), UniProt P04798); experiment: CYP1A1 inhibition assay (Promega P450-Glo, Cypex bactosomes); assay type: biochemical; details: direct CYP1A1 inhibition, Luciferin-CEE 30 μM, NADPH, 37° C., arithmetic mean of pIC50
Chain of CYP1A1 (P04798 whole entry): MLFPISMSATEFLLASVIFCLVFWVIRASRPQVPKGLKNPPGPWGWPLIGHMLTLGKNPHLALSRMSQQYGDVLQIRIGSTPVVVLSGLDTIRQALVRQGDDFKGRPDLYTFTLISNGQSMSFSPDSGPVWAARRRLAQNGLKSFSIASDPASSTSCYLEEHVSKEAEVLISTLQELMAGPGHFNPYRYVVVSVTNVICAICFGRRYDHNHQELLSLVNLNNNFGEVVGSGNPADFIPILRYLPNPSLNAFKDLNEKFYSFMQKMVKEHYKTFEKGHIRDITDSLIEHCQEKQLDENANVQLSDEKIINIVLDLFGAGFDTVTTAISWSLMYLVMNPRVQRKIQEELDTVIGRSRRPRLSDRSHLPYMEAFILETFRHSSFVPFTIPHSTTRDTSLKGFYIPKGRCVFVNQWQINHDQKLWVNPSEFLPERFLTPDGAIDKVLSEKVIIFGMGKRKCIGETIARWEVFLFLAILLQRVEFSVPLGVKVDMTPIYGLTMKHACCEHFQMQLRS
Method: In Vitro Assay 22: […] Inhibition Assay
The direct CYP1A1 inhibitory activity of test compounds was also assessed using the Promega P450-Glo™ assay system. Seven concentrations of test compound were added to a ½ area white 96 well plate. Cypex […]. bactosomes ([final] 0.5 pmol) and CYPA substrate Luciferin-CEE ([final] 30 μM) were prepared in 0.1M potassium phosphate buffer and incubated with test compounds at 37° C. for 5 minutes. 0.2m NADPH was then added to the plates and incubated at 37° C., for 10 minutes. The reaction was stopped by adding luciferin detection reagent and luminescence was read after 20 minutes.

Chain of AhR (P35869 11-848): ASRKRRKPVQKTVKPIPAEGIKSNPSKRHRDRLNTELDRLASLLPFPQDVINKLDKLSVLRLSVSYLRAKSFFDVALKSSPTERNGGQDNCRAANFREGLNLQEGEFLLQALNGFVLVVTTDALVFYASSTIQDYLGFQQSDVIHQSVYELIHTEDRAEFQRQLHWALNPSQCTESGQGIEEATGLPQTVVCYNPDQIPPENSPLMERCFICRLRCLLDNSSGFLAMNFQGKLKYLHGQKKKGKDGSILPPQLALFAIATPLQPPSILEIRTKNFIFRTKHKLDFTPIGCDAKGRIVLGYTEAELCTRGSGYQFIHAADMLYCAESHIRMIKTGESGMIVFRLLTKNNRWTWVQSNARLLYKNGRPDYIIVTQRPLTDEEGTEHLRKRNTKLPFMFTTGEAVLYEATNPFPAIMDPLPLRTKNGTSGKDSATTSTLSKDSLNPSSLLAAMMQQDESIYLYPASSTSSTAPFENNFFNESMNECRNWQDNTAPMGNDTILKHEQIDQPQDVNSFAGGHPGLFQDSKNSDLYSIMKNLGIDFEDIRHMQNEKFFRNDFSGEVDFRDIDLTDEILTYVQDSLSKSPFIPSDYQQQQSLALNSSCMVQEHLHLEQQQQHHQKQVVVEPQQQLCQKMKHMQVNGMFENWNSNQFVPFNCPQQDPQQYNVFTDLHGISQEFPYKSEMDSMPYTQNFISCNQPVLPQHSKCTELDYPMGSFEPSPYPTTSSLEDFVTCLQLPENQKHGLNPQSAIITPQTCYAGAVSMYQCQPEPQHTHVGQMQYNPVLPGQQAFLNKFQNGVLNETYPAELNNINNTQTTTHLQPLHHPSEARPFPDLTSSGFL

| IC50 [1] [µM] | cyp1A1 pIC50 [2] | IC50 [2] [µM] | SMILES |
| --- | --- | --- | --- |
| 0.00126 | 6.20 | – | CS(=O)(=O)N1CCc2c(nc(-c3cncc(F)c3)nc2NCCc2c[nH]c3ccccc23)C1 [Example 2, N-(2-(1H-indol-3-yl)ethyl)-2-(5-fluoropyridin-3-yl)-7-(methylsulfonyl)-5,6,7,8-tetrahydropyrido [3,4-d]pyrimidin-4-amine] |
| 0.00631 | – | 0.1 | NCC(=O)N1CCc2c(nc(-c3cncc(F)c3)nc2NCCc2c[nH]c3ccccc23)C1 [Example 16, 1-(4-((2-(1H-indol-3-yl)ethyl)amino)-2-(5-fluoropyridin-3-yl)-5,8-dihydropyrido[3,4-d]pyrimidin-7(6H)-yl)-2-aminoethan-1-one] |
| 0.00316 | 5.70 | – | CN(C)C(=O)N1CCc2c(nc(-c3cncc(F)c3)nc2NCCc2c[nH]c3ccccc23)C1 [Example 13, 4-((2-(1H-indol-3-yl)ethyl)amino)-2-(5-fluoropyridin-3-yl)-N,N-dimethyl-5,8-dihydropyrido[3,4-d]pyrimidine-7(6H)-carboxamide] |
| 0.0126 | 6.60 | – | Fc1cncc(-c2nc3c(c(NCCc4c[nH]c5ccccc45)n2)CNC3)c1 [Example 24, N-(2-(1H-indol-3-yl)ethyl)-2-(5-fluoropyridin-3-yl)-6,7-dihydro-5H-pyrrolo[3,4-d]pyrimidin-4-amine] |
| 0.00513 | 7.2 | – | Fc1cncc(-c2nc3c(c(NCCc4c[nH]c5cc(F)ccc45)n2)CNCC3)c1 [Example 31, N-(2-(6-fluoro-1H-indol-3-yl)ethyl)-2-(5-fluoropyridin-3-yl)-5,6,7,8-tetrahydropyrido[4,3-d]pyrimidin-4-amine] |
| 0.0158 | 6.10 | – | CCN1CCc2nc(-c3cncc(F)c3)nc(NCCc3c[nH]c4ccccc34)c2CC1 [Example 17b, N-(2-(1H-indol-3-yl)ethyl)-7-ethyl-2-(5-fluoropyridin-3-yl)-6,7,8,9-tetrahydro-5H-pyrimido[4,5-d]azepin-4-amine] |
| 0.00501 | 6.50 | – | CN1CCc2c(nc(-c3cncc(F)c3)nc2NCCc2c[nH]c3ccccc23)C1 [Example 6, N-(2-(1H-indol-3-yl)ethyl)-2-(5-fluoropyridin-3-yl)-7-methyl-5,6,7,8-tetrahydropyrido[3,4-d]pyrimidin-4-amine] |
| 0.00501 | 6.20 | – | CS(=O)(=O)N1Cc2nc(-c3cncc(F)c3)nc(NCCc3c[nH]c4ccccc34)c2C1 [Example 25, N-(2-(1H-indol-3-yl)ethyl)-2-(5-fluoropyridin-3-yl)-6-(methylsulfonyl)-6,7-dihydro-5H-pyrrolo[3,4-d]pyrimidin-4-amine] |
| 0.02 | 6.60 | – | c1cncc(-c2nc3c(c(NCCc4c[nH]c5ccccc45)n2)CCNC3)c1 [Example 9, N-(2-(1H-indol-3-yl)ethyl)-2-(pyridin-3-yl)-5,6,7,8-tetrahydro pyrido[3,4-d]pyrimidin-4-amine] |
| 0.002 | 6.00 | – | Cn1nccc1C(=O)N1CCc2c(nc(-c3cncc(F)c3)nc2NCCc2c[nH]c3ccccc23)C1 [Example 15, (4-((2-(1H-indol-3-yl)ethyl)amino)-2-(5-fluoropyridin-3-yl)-5,8-dihydropyrido[3,4-d]pyrimidin-7(6H)-yl)(1-methyl-1H-pyrazol-5-yl)methanone] |
| 0.02 | 5.90 | – | CC1(C)NCCc2c(NCCc3c[nH]c4ccccc34)nc(-c3cncc(F)c3)nc21 [Example 18b, N-(2-(1H-indol-3-yl)ethyl)-2-(5-fluoropyridin-3-yl)-8,8-dimethyl-5,6,7,8-tetrahydropyrido[3,4-d]pyrimidin-4-amine] |
| > 10 | 5.5 | – | Fc1cncc(-c2nc3c(c(NCCc4nc5ccccc5[nH]4)n2)CNCC3)c1 [Example 28, N-(2-(1H-benzo[d]imidazol-2-yl)ethyl)-2-(5-fluoropyridin-3-yl)-5,6,7,8-tetrahydropyrido[4,3-d]pyrimidin-4-amine] |
| 3.16 | 5.10 | – | Fc1cncc(-c2nc3c(c(NCCc4nc5ccccc5[nH]4)n2)CCNC3)c1 [Example 19, N-(2-(1H-benzo[d]imidazol-2-yl)ethyl)-2-(5-fluoropyridin-3-yl)-5,6,7,8-tetrahydropyrido[3,4-d]pyrimidin-4-amine] |
| 0.0251 | 6.20 | – | Fc1cncc(-c2nc3c(c(NCCc4c[nH]c5ccccc45)n2)CCNCC3)c1 [Example 17a, N-(2-(1H-indol-3-yl)ethyl)-2-(5-fluoropyridin-3-yl)-6,7,8,9-tetrahydro-5H-pyrimido[4,5-d]azepin-4-amine] |
| 0.0126 | 6.80 | – | c1cncc(-c2nc3c(c(NCCc4c[nH]c5ccccc45)n2)CNC3)c1 [Example 10, N-(2-(1H-indol-3-yl)ethyl)-2-(pyridin-3-yl)-6,7-dihydro-5H-pyrrolo[3,4-d]pyrimidin-4-amine] |
| 0.00158 | 6.00 | – | CC(=O)N1CCc2c(nc(-c3cncc(F)c3)nc2NCCc2c[nH]c3ccccc23)C1 [Example 1, 1-(4-((2-(1H-indol-3-yl)ethyl)amino)-2-(5-fluoropyridin-3-yl)-5,8-dihydropyrido [3,4-d]pyrimidin-7(6H)-yl)ethan-1-one] |
| 0.01 | 6.70 | – | c1cncc(-c2nc3c(c(NCCc4c[nH]c5ccccc45)n2)CNCC3)c1 [Example 7, N-(2-(1H-indol-3-yl)ethyl)-2-(pyridin-3-yl)-5,6,7,8-tetrahydropyrido [4,3-d]pyrimidin-4-amine] |
| 0.00617 | 7.2 | – | Cc1cncc(-c2nc3c(c(NCCc4c[nH]c5ccccc45)n2)CNCC3)c1 [Example 26, N-(2-(1H-indol-3-yl)ethyl)-2-(5-methylpyridin-3-yl)-5,6,7,8-tetrahydro pyrido[4,3-d]pyrimidin-4-amine] |
| 0.02 | 6.40 | – | Fc1cncc(-c2nc3c(c(NCCc4c[nH]c5ccccc45)n2)CNCC3)c1 [Example 21, N-(2-(1H-indol-3-yl)ethyl)-2-(5-fluoropyridin-3-yl)-5,6,7,8-tetrahydropyrido[4,3-d]pyrimidin-4-amine] |
| 0.0263 | 6.5 | – | Fc1cncc(-c2nc3c(c(NCCc4c[nH]c5ccc(F)cc45)n2)CCNC3)c1 [Example 30, N-(2-(5-fluoro-1H-indol-3-yl)ethyl)-2-(5-fluoropyridin-3-yl)-5,6,7,8-tetrahydropyrido [3,4-d]pyrimidin-4-amine] |
| 0.00501 | 6.20 | – | CC1(C)c2nc(-c3cncc(F)c3)nc(NCCc3c[nH]c4ccccc34)c2CCN1Cc1ccccc1 [Example 18a, N-(2-(1H-indol-3-yl)ethyl)-7-benzyl-2-(5-fluoropyridin-3-yl)-8,8-dimethyl-5,6,7,8-tetrahydropyrido[3,4-d]pyrimidin-4-amine] |
| 0.00126 | 6.10 | – | CNC(=O)N1CCc2c(nc(-c3cncc(F)c3)nc2NCCc2c[nH]c3ccccc23)C1 [Example 14, 4-((2-(1H-indol-3-yl)ethyl)amino)-2-(5-fluoropyridin-3-yl)-N-methyl-5,8-dihydropyrido[3,4-d]pyrimidine-7(6H)-carboxamide] |
| 0.00794 | 6.7 | – | Fc1cncc(-c2nc3c(c(NCCc4c[nH]c5cc(F)ccc45)n2)CCNC3)c1 [Example 29, N-(2-(6-fluoro-1H-indol-3-yl)ethyl)-2-(5-fluoropyridin-3-yl)-5,6,7,8-tetrahydropyrido[3,4-d]pyrimidin-4-amine] |
| 0.0251 | 6.40 | – | Cc1cncc(-c2nc3c(c(NCCc4c[nH]c5ccccc45)n2)CCNC3)c1 [Example 20, N-(2-(1H-indol-3-yl)ethyl)-2-(5-methylpyridin-3-yl)-5,6,7,8-tetrahydropyrido[3,4-d]pyrimidin-4-amine] |
| 0.00316 | 6.40 | – | Fc1cncc(-c2nc3c(c(OCCc4c[nH]c5ccccc45)n2)CCNC3)c1 [Example 11, 4-(2-(1H-indol-3-yl)ethoxy)-2-(5-fluoropyridin-3-yl)-5,6,7,8-tetrahydropyrido[3,4-d]pyrimidine] |
| 0.01 | 6.40 | – | CC(C)N1CCc2c(nc(-c3cncc(F)c3)nc2NCCc2c[nH]c3ccccc23)C1 [Example 5, N-(2-(1H-indol-3-yl)ethyl)-2-(5-fluoropyridin-3-yl)-7-isopropyl-5,6,7,8-tetrahydropyrido[3,4-d]pyrimidin-4-amine] |
